HELM strings list units from the 5' end as sugar, base in round brackets, then linkage (d deoxyribose, r ribose, m 2'-O-methyl, p phosphodiester). Strings are as the collection lists them; they lack the last nucleoside at the 3' end of the tested compound. [moe] = 2'-O-(2-methoxyethyl) (MOE); [sp] = phosphorothioate linkage; [m5C] = 5-methylcytosine
Molecular target: UBE3A-ATS
Assay: mouse, dose not given
Settings: ASO

Substance | 3 h FOB score [score 0-7]
RNA1{[moe](G)[sp].[moe](G)p.[moe](T)p.[moe](A)p.[moe](G)p.d(T)[sp].d([m5C])[sp].d(T)[sp].d(A)[sp].d(T)[sp].d(A)[sp].d(T)[sp].d(T)[sp].d(T)[sp].d(G)[sp].[moe](G)p.[moe](T)p.[moe](A)[sp].[moe](A)}$$$$ (last 3' nucleoside missing) | 6.2
RNA1{[moe](G)[sp].[moe](G)p.[moe](T)p.[moe](A)p.[moe](G)p.d([m5C])[sp].d([m5C])[sp].d([m5C])[sp].d([m5C])[sp].d(A)[sp].d(A)[sp].d(T)[sp].d(A)[sp].d([m5C])[sp].d(A)[sp].[moe](G)p.[moe](A)p.[moe](T)[sp].[moe](T)}$$$$ (last 3' nucleoside missing) | 1
RNA1{[moe](G)[sp].[moe](G)p.[moe](T)p.[moe](A)p.[moe](T)p.d(T)[sp].d(G)[sp].d(A)[sp].d([m5C])[sp].d(A)[sp].d([m5C])[sp].d([m5C])[sp].d(T)[sp].d([m5C])[sp].d([m5C])[sp].[moe](A)p.[moe](A)p.[moe]([m5C])[sp].[moe](T)}$$$$ (last 3' nucleoside missing) | 5
RNA1{[moe](G)[sp].[moe](G)p.[moe](T)p.[moe](T)p.[moe](A)p.d(A)[sp].d(G)[sp].d(T)[sp].d([m5C])[sp].d(T)[sp].d(G)[sp].d([m5C])[sp].d(T)[sp].d([m5C])[sp].d(T)[sp].[moe](T)p.[moe](T)p.[moe]([m5C])[sp].[moe](A)}$$$$ (last 3' nucleoside missing) | 4
RNA1{[moe](G)[sp].[moe](G)p.[moe](T)p.[moe](T)p.[moe](A)p.d(G)[sp].d(G)[sp].d(G)[sp].d([m5C])[sp].d(T)[sp].d(A)[sp].d(T)[sp].d(G)[sp].d(T)[sp].d(T)[sp].[moe](A)p.[moe](T)p.[moe](G)[sp].[moe](T)}$$$$ (last 3' nucleoside missing) | 6
RNA1{[moe](G)[sp].[moe](G)p.[moe](T)p.[moe](T)p.[moe](T)p.d(A)[sp].d(G)[sp].d(G)[sp].d(T)[sp].d([m5C])[sp].d(A)[sp].d(A)[sp].d([m5C])[sp].d([m5C])[sp].d(A)[sp].[moe](A)p.[moe](T)p.[moe](T)[sp].[moe](T)}$$$$ (last 3' nucleoside missing) | 6
RNA1{[moe](G)[sp].[moe](G)p.[moe](T)p.[moe](T)p.[moe](T)p.d(A)[sp].d(G)[sp].d(T)[sp].d(G)[sp].d(T)[sp].d([m5C])[sp].d(A)[sp].d(T)[sp].d(A)[sp].d(T)[sp].[moe](G)p.[moe](T)p.[moe](A)[sp].[moe](G)}$$$$ (last 3' nucleoside missing) | 5.5
RNA1{[moe](G)[sp].[moe](G)p.[moe](T)p.[moe]([m5C])[sp].d(A)[sp].d(T)[sp].d([m5C])[sp].d(T)[sp].d([m5C])[sp].d(G)[sp].d(G)[sp].d(G)[sp].[moe](T)p.[moe](A)p.[moe](T)p.[moe](A)[sp].[moe](T)}$$$$ (last 3' nucleoside missing) | 6.3
RNA1{[moe](G)[sp].[moe](G)p.[moe](T)p.[moe]([m5C])p.[moe](A)[sp].d(T)[sp].d([m5C])[sp].d(T)[sp].d([m5C])[sp].d(G)[sp].d(G)[sp].d(G)[sp].d(T)[sp].[moe](A)p.[moe](T)p.[moe](A)[sp].[moe](T)}$$$$ (last 3' nucleoside missing) | 6
RNA1{[moe](G)[sp].[moe](G)p.[moe](T)p.[moe]([m5C])p.[moe](A)p.[moe](A)p.d([m5C])[sp].d([m5C])[sp].d(A)[sp].d(A)[sp].d(T)[sp].d(T)[sp].d(T)[sp].d(G)[sp].d([m5C])[sp].d(T)[sp].[moe](A)p.[moe](T)[sp].[moe](T)}$$$$ (last 3' nucleoside missing) | 5
RNA1{[moe](G)[sp].[moe](G)p.[moe](T)p.[moe]([m5C])p.[moe](A)p.[moe](T)[sp].d([m5C])[sp].d(T)[sp].d([m5C])[sp].d(G)[sp].d(G)[sp].d(G)[sp].d(T)[sp].d(A)[sp].[moe](T)p.[moe](A)[sp].[moe](T)}$$$$ (last 3' nucleoside missing) | 6
RNA1{[moe](G)[sp].[moe](G)p.[moe](T)p.[moe]([m5C])p.[moe](A)p.[moe](T)p.d([m5C])[sp].d(T)[sp].d([m5C])[sp].d(G)[sp].d(G)[sp].d(G)[sp].d(T)[sp].d(A)[sp].d(T)[sp].d(A)[sp].[moe](T)p.[moe](A)[sp].[moe](A)}$$$$ (last 3' nucleoside missing) | 6
RNA1{[moe](G)[sp].[moe](G)p.[moe](T)p.[moe]([m5C])p.[moe](A)p.d(A)[sp].d([m5C])[sp].d([m5C])[sp].d(A)[sp].d(A)[sp].d(T)[sp].d(T)[sp].d(T)[sp].d(G)[sp].d([m5C])[sp].[moe](T)p.[moe](A)p.[moe](T)[sp].[moe](T)}$$$$ (last 3' nucleoside missing) | 3.8
RNA1{[moe](G)[sp].[moe](G)p.[moe](T)p.[moe]([m5C])p.[moe](A)p.d(G)[sp].d(A)[sp].d(T)[sp].d(T)[sp].d([m5C])[sp].d([m5C])[sp].d(T)[sp].d(A)[sp].d(A)[sp].d(A)[sp].[moe](T)p.[moe](A)p.[moe]([m5C])[sp].[moe](G)}$$$$ (last 3' nucleoside missing) | 1
RNA1{[moe](G)[sp].[moe](G)p.[moe](T)p.[moe]([m5C])p.[moe](A)p.d(T)[sp].d([m5C])[sp].d(T)[sp].d([m5C])[sp].d(G)[sp].d(G)[sp].d(G)[sp].d(T)[sp].d(A)[sp].d(T)[sp].[moe](A)p.[moe](T)p.[moe](A)[sp].[moe](A)}$$$$ (last 3' nucleoside missing) | 4.2
RNA1{[moe](G)[sp].[moe](G)p.[moe](T)p.[moe]([m5C])p.[moe]([m5C])p.d(A)[sp].d(T)[sp].d(A)[sp].d(G)[sp].d(A)[sp].d(T)[sp].d(G)[sp].d(T)[sp].d([m5C])[sp].d(A)[sp].[moe](G)p.[moe](T)p.[moe](T)[sp].[moe](A)}$$$$ (last 3' nucleoside missing) | 5.5
RNA1{[moe](G)[sp].[moe](G)p.[moe](T)p.[moe]([m5C])p.d(A)[sp].d(A)[sp].d([m5C])[sp].d([m5C])[sp].d(A)[sp].d(A)[sp].d(T)[sp].d(T)[sp].d(T)[sp].d(G)[sp].[moe]([m5C])p.[moe](T)p.[moe](A)p.[moe](T)[sp].[moe](T)}$$$$ (last 3' nucleoside missing) | 4.7
RNA1{[moe](G)[sp].[moe](G)p.[moe](T)p.[moe]([m5C])p.d(A)[sp].d(T)[sp].d([m5C])[sp].d(T)[sp].d([m5C])[sp].d(G)[sp].d(G)[sp].d(G)[sp].d(T)[sp].d(A)[sp].[moe](T)p.[moe](A)p.[moe](T)p.[moe](A)[sp].[moe](A)}$$$$ (last 3' nucleoside missing) | 5.5
RNA1{[moe](G)[sp].[moe](G)p.[moe]([m5C])p.[moe](A)p.[moe](A)p.d(G)[sp].d([m5C])[sp].d(A)[sp].d(A)[sp].d([m5C])[sp].d(T)[sp].d(A)[sp].d(T)[sp].d(G)[sp].d(G)[sp].[moe](G)p.[moe](T)p.[moe](G)[sp].[moe](G)}$$$$ (last 3' nucleoside missing) | 6.2

Reference: the OligoGym collection
